Key:
[1] = tested on: MT formation at Golgi fragments in HCMV-infected NHDFs; test: Nocodazole washout assay, MT nucleation; type: cell-based, human; details: 10µM nocodazole for 8h, mock or AD169-infected NHDFs, 3d
[2] = tested on: CDK activity and EB3 abundance in HCMV AD169-infected NHDFs; details: 3 µM

With `COC(=O)Nc1nc2ccc(C(=O)c3cccs3)cc2[nH]1` [nocodazole] the “effect on MTs, Golgi and AC structures” value [1] was “depolymerized MTs and dispersed Golgi and AC structures”.
With `Nc1nc(Nc2ccc(S(N)(=O)=O)cc2)nn1C(=O)c1c(F)cccc1F` [JNJ-7706621] the “effect on IE2 expression” value ([2]; AD169 MOI 3, WB) was “modestly affected IE2 expression”, the “CDK substrate phosphorylation and increases in EB3 abundance by 3d.p.i.” value ([2]; daily inhibitor replenishment, AD169 MOI 3, 3d.p.i.) was “insensitive” and the “effect on HCMV-induced CDK activation (pan-CDK1 substrate antibody)” value ([2]; replaced every 24h, AD169 MOI 3, WB) was “suppressed HCMV-induced CDK activation”. The “effect on HCMV-induced increases in EB3” value ([2]; replaced every 24h, AD169 MOI 3, WB, 1 and 2 d.p.i.) was “prevented increases in EB3 at 1 and 2 d.p.i”.

— paper PMC5896778 (Developmental cell, 2018)
